Where two headings read alike, the source gives them in different places.
Test system: human hepatic lipase (HL) promoter (−1557 to +43) regulated through human estrogen receptor
Assay: Hepatic lipase promoter luciferase reporter assay in HepG2 cells cotransfected with human estrogen receptor and C/EBPα
Format: cell-based
Conditions: for Efficacy (%), Hepatic Lipase Inhibition: relative to 100% effect of 17β-estradiol inhibition of HL activity
Experimental: Cell media was replaced every 2-3 days. Confluent cells were rinsed once with phosphate-buffered saline and 5 mL of a prewarmed solution comprised of about 0.05% trypsin, by volume, and about 0.5 mM ethylenediamine tetraacetic acid was added. Cells were left at room temperature for 5 minutes and cells were then dislodged from the flask by tapping the flask 50 times. Trypsinization was halted by the addition of about 8.5 mL of growth cell culture media. Cells were transferred to a test tube and centrifuged at about 300×g for about 5 minutes. Total cells were counted and resuspended at a concentration of about 1×10^7 cells/200 μL of growth cell culture media.
The mixture was transferred to a 0.2 mL BTX disposable cuvette (P/N 620). Cells were electroporated using a BTX ECM 600 (San Diego, Calif.), at 100 V, […] and 72 Ω. Cells were left a room temperature for about 20 minutes. Approximately 20.5 mL of growth cell culture media was added to the cells. Cells were then seeded at about 200 μL per well of a 96 well plate. Cells were then incubated at about 37° C. for 4 hours.
Media was aspirated and replaced with 200 μL deficient media, which was comprised of Phenol Red Free-DMEM (Gibco BRL) supplemented with 1%, by volume, glutamax; 1%, by volume, penicillin/strepomycin; 1%, by volume, non-essential amino acids; and 10%, by volume, heat inactivated, and charcoal-stripped fetal bovine serum, containing varying concentrations of estrogen test compounds. […]
After estrogen treatment, cells were washed with phosphate-buffered saline and lysed with Cell Culture Lysis Reagent (Promega; Madison, Wis.), 50 μL/well, by shaking the plate at room temperature for about 20 minutes. From each well, 35 μL of cell lysate was transferred to a 96 lumat plate. Luciferase activity was determined by addition of 100 μL luciferase substrate and emitted light was detected with a Dentate Microfluor WHT FB using the Luciferase Assay System (Promega; Madison, Wis.). β-galactosidase activity was determined by adding 10 μL of cell lysate and 100 μL β-galactosidase light emission buffer (Tropix; Bedford Mass.) to a lumat plate. β-galactosidase activity was determined with a Microlumat LB 96P (EG&G Berthold). Emitted light, for each assay, was detected for 10 seconds.
Data were collected and analyzed with the JMP statistical program. Background RLU values were subtracted from both the luciferase and β-gal values. The data were normalized by division of the corrected luciferase values by the corrected β-gal values. […] Mean and standard deviations were determined from at least two separate experiments with an n=4 for each experiment.
Luciferase activity was determined in cell lysates.

[1] = transfected HepG2 cells, 16-24 hours treatment
[2] = transfected HepG2 cells, 16-24 hours treatment, luciferase normalized to β-gal, read-out: IC50 (nM), Hepatic Lipase Inhibition

Q: How did the “Efficacy (%), Hepatic Lipase Inhibition” value [1] turn out when `C[C@]12CC[C@H]3C(=CCc4cc(O)ccc43)[C@@H]1CC[C@H]2O` [17α-dihydroequilin] was run?
A: 89%

Q: And the IC50 [2]?
A: 164 nM

Q: What does the source list for `C[C@]12CC[C@@H]3c4ccc(O)cc4CC[C@H]3[C@@H]1CC[C@H]2O` [17α-estradiol]?
A: Efficacy (%), Hepatic Lipase Inhibition [1]: 69%; IC50 [2]: 457 nM

Q: Which results are given for `C[C@]12CC[C@H]3C(=CCc4cc(O)ccc43)[C@@H]1CC[C@@H]2O` [17β-dihydroequilin]?
A: Efficacy (%), Hepatic Lipase Inhibition [1]: 149%; IC50 [2]: 469 nM

Q: Which “Efficacy (%), Hepatic Lipase Inhibition” value [1] does the source give for `C[C@]12CC[C@@H]3c4ccc(O)cc4CC[C@H]3[C@@H]1CC[C@@H]2O` [17β-estradiol] here?
A: 100%

Q: And the IC50 [2]?
A: 88 nM

Q: With `C[C@]12CCC3=C(CCc4cc(O)ccc43)[C@@H]1CC[C@@H]2O` [17β-Δ8,9-dehydroestradiol] as the molecule, how does the “Efficacy (%), Hepatic Lipase Inhibition” value [1] read?
A: 88%

Q: And the IC50 [2]?
A: 12 nM

Q: What does the source list for `C[C@]12CCc3c(ccc4cc(O)ccc34)[C@@H]1CCC2=O` [equilenin]?
A: IC50 (Homo sapiens, HepG2, read-out: IC50 (nM), Hepatic Lipase Inhibition): 38 nM; Efficacy (%), Hepatic Lipase Inhibition [1]: 82%

Q: Which “Efficacy (%), Hepatic Lipase Inhibition” value [1] does the source give for `C[C@]12CCC3=C(CCc4cc(O)ccc43)[C@@H]1CCC2=O` [Δ8,9-dehydroestrone] here?
A: 93%

Q: And the IC50 [2]?
A: 10 nM

Source: US7521199B2, “Assay to identify estrogen receptor dependent ligands that regulate the hepatic lipase promoter” (Wyeth, priority 2000, dated 2009)
